In US4552843A, “Process for producing an acidic polycyclic ether antibiotic by cultivation of a novel strain of Streptomyces endus subspecies aureus” (Pfizer Inc., priority 1984, dated 1985):

Tests used:
[1] = tested on: Eimeria tenella; experiment: efficacy against coccidial infections in chickens (Table II); format: in vivo; conditions: for Ratio: lesion score treated / infected control; for % Weight Gain / Average Degree of Infection: chicks; for Average Degree of Infection: lesion score 0 to 4, six days
Method: (§1) Efficacy data for Antibiotic CP-63,517 and its salts against coccidial infections in chickens was obtained in the following fashion. Groups of 3-5 ten-day old SPF white leghorn cockerel chicks were fed a mash diet containing Antibiotic CP-63,517, its sodium and/or potassium salt, or the known agents Monensin or Stenorol uniformly dispersed therein. After being on this ration for 24 hours each chick was inoculated per os with oocysts of the particular species of Eimeria being tested. Other groups of 3-5 ten-day old chicks were fed a similar mash diet free of any test compound. They were also infected after 24 hours and served as infected controls. Yet another group of 3-5 ten-day old chicks were fed the mash diet free of any test compound and were not infected with coccidia. These served as normal controls. The results of treatment were evaluated after five days in the case of E. acervulina, and six days for other challenges.
(§2) ^1 The criteria used to measure anticoccidial activity consisted of
(§3) lesion scores of 0 to 4 for Eimeria tenella after J. E. Lynch, "A New
(§4) Method for the Primary Evaluation of Anticoccidial Activity", Am. J. Vet.
(§5) modification of the scoring system devised by J. Johnson and W. H. Reid,
(§6) "Anticoccidial Drugs. Lesion Scoring Techniques in Battery and Floor Pen
(§7) Experiments in Chicks", Exp. Parasit. 28: 30-36 (1970). A constant ratio
(§8) was established by dividing the lesion score of each treated group by the
(§9) lesion score of the infected control.

[2] = tested on: rumen fluid; experiment: in vitro rumen technique, propionic acid production; design: species or system calf
Method: The value of animal feeds generally has been determined directly by feeding the animal. British Pat. No. 1,197,826 details an in vitro rumen technique whereby the changes occurring in feeds brought about by microorganisms are measured more readily and with great accuracy in the evaluation of animal feeds. This technique involves the use of an apparatus in which the digestive processes of the animals are conducted and studied in vitro. The animal feeds, rumen inoculum and various growth promotants are introduced into and withdrawn from a laboratory unit under carefully controlled conditions and the changes taken place are studied critically and progressively during the consumption of the feed by the microorganisms. […] The change in propionic acid content is expressed as percent of the propionic acid content found in the control rumen fluid. Long term in vivo feeding studies are used to show a reliable correlation between propionic acid increase in the rumen fluid and improved animal performance.
Rumen fluid is collected from a fistulated calf which is fed on a commercial fattening ration plus hay. The rumen fluid is immediately filtered through cheese cloth, and 10 ml added to a 50 ml conical flask containing 400 mg of standard substrate (68% corn starch +17% cellulose +15% extracted soybean meal), 10 ml of a pH 6.8 buffer and the test compound. The flasks are gassed with oxygen free nitrogen for about two minutes, and incubated in a shaking water bath at 39° C. for about 16 hours. All tests are conducted in triplicate.
After incubation, 5 ml of the sample is mixed with 1 ml of 25% metaphosphoric acid. After 10 minutes 0.25 ml of formic acid is added and the mixture centrifuged at 1500 RPM for 10 minutes. Samples are then analyzed by gas-liquid chromatography by the method of D. W. Kellog, J. Dairy Science, 52, 1690 (1969). Peak heights for acetic, propionic and butyric acids are determined for samples from untreated and treated incubation flasks.

[3] = tested on: Eimeria acervulina; experiment: efficacy against coccidial infections in chickens (Table II); format: in vivo; conditions: 9 ppm in diet; for Ratio: lesion score treated / infected control; for % Weight Gain / Average Degree of Infection: chicks; for Average Degree of Infection: lesion score 0 to 3, five days
Method: as §1, §2, §3, §4, §5, §6, §7, §8, §9

[4] = 53 ppm in diet, replicate (in parentheses)
[5] = 120 ppm in diet, replicate (in parentheses)
[6] = 0.75 ppm in diet, replicate (in parentheses)
[7] = 3 ppm in diet, replicate (in parentheses)
[8] = 9 ppm in diet, replicate (in parentheses)

## CC[C@@]1([C@@H]2O[C@@H]([C@H]3O[C@@](O)(CO)[C@H](C)C[C@@H]3C)C[C@@H]2C)CC[C@H]([C@]2(C)CC[C@]3(C[C@H](O)[C@@H](C)[C@@H]([C@@H](C)[C@@H](OC)[C@H](C)C(=O)O)O3)O2)O1 [Monensin]
[1]; 53 ppm in diet
  Ratio: 0.69
  % Weight Gain: 92%
  Average Degree of Infection: 2.3
[1]; [4]
  Ratio: 0.54
  Average Degree of Infection: 1.7
  % Weight Gain: 99%
[1]; 120 ppm in diet
  Ratio: 0.09
  % Weight Gain: 71%
  Average Degree of Infection: 0.3
[1]; [5]
  Ratio: 0.32
  Average Degree of Infection: 1.0
  % Weight Gain: 68%
[2]; 10 micrograms per milliliter (10 μg/ml), comparison with Monensin
  increase in production of propionic acid over control: about 20%

## CC[C@@H](C(=O)[C@@H](C)[C@@H](O)[C@H](C)[C@@H]1O[C@@H]([C@@H](CC)C(=O)O)CC[C@@H]1C)[C@H]1O[C@]2(C=C[C@@H](O)[C@]3(CC[C@@](C)([C@H]4CC[C@](O)(CC)[C@H](C)O4)O3)O2)[C@H](C)C[C@@H]1C [Salinomycin, reference compound]
[2]; 10 μg/ml, comparison with Salinomycin
  increase in propionic acid: about 65%

## O=C(CC1NCCCC1O)Cn1cnc2cc(Br)c(Cl)cc2c1=O (centres unmarked) [Stenorol]
[3]
  Ratio: 0.0
  % Weight Gain: 48%
  Average Degree of Infection: 0.0
[3]; replicate (in parentheses)
  Ratio: 0.0
  Average Degree of Infection: 0.0
  % Weight Gain: 51%
[1]; 0.75 ppm in diet
  Ratio: 0.51
  % Weight Gain: 66%
  Average Degree of Infection: 1.7
[1]; [6]
  Ratio: 0.73
  Average Degree of Infection: 2.3
  % Weight Gain: 90%
[1]; 3 ppm in diet
  Ratio: 0.0
  % Weight Gain: 86%
  Average Degree of Infection: 0.0
[1]; [7]
  Ratio: 0.0
  Average Degree of Infection: 0.0
  % Weight Gain: 103%
[1]; 9 ppm in diet
  Ratio: 0.0
  % Weight Gain: 63%
  Average Degree of Infection: 0.0
[1]; [8]
  Ratio: 0.0
  Average Degree of Infection: 0.0
  % Weight Gain: 77%
